Laboratory results taken from US9746463B2 (THE TRUSTEES OF COLUMBIA UNIVERSITY IN THE CITY OF NEW YORK, priority 2006, dated 2017).
Bridge positions count the residues as written; N and C are the ends. Square brackets hold non-standard residues; d marks the D form. Primed or numbered codes have the meaning given here. Ends that are not written are not given here. Gla′ = carboxylated glutamic acid

Legend:
[1] = system: Adiponectin expression in WT adipocytes; assay: Adiponectin expression in adipocytes treated with osteocalcin (real time PCR); assay type: cell-based, mouse
Description: (§1) FIG. 7A-O. Esp−/− Mice Are a Model of Increased Osteocalcin Bioactivity. (FIGS. 7A-G) Comparison between 6-week-old WT, Esp−/, Ocn+/−, and Esp−/−; Ocn+/− mice. (FIG. 7A) Blood glucose levels. (FIG. 7B) Serum insulin levels. (FIG. 7C) Serum adiponectin levels. (FIG. 7D) GTT. (FIG. 7E) ITT. (FIG. 7F) GSIS test. (FIG. 7G) Quantification of the number of Ki67-immunoreactive cells in pancreatic islets. […] (FIG. 7K) Expression of Adiponectin in WT adipocytes cultured in presence of vehicle or of 1 ng/ml of commercially available carboxylated osteocalcin (Immunotopics) or bacterially produced uncarboxylated osteocalcin. (FIG. 7L) Expression of Insulin and Cyclin D1 in WT islets cultured in presence of 0.3 ng/ml of bacterially produced uncarboxylated osteocalcin or vehicle. (FIG. 7M) Metabolic parameters and total serum osteocalcin levels in control and obese patients. (FIG. 7N-O) Quantification of carboxylated osteocalcin (HA-bound osteocalcin) in control and obese patients. In (FIGS. 7A)-(C) and (FIGS. G)-(L): *p<0.05 versus WT (Student's t test); in (FIG. D)-(F), °p<0.05 versus WT and *p % 0.001 versus WT (ANOVA followed by post hoc analysis).
FIG. 15. […] Wt adipocytes were treated for 4 hours with recombinant full-length osteocalcin (1-46) or a truncated form (1-36) or vehicle. Adiponectin expression was then quantified by real time PCR.
Primary adipocytes were isolated from epididymal fat pads by collagenase digestion. Briefly, minced adipose tissue was digested by 1 mg/ml collagenase P in KRP Buffer (20 mM HEPES, 120 mM NaCl, 6 mM KCl, 1.2 mM MgSO4, 1 mM CaCl2, 0.6 mM Na2HPO4, 0.4 mM NaH2PO4, 2.5 mM D-glucose, 2% BSA, pH 7.4) for 1 h at 37° C. The isolated cells were washed twice with KRP Buffer before being cultured in αMEM/1% FBS at 37° C. in 5% CO2.
Gene expression analyses. All gene expression analyses were performed using real time PCR. DNAse I-treated total RNA was converted to cDNA with the SuperScript III kit (Invitrogen). Real-time PCR were performed using the Taq SYBR Green Supermix with ROX (Biorad) on an MX3000 instrument (Stratagene); beta-actin amplification was used as an internal reference for each sample. All primers were from SuperArray.
A fragment of uncarboxylated osteocalcin is biologically active. Experiments were performed to test whether truncated osteocalcin was as effective as full-length uncarboxylated osteocalcin in stimulating adiponectin secretion from mouse adipocytes in vitro. Wild type adipocytes were treated for 4 hours with recombinant full-length osteocalcin (1-46) or a truncated form (1-36) (having a deletion of the first ten amino acids from the C-terminal end) or vehicle. Adiponectin expression was then quantified by real time PCR. […]

[2] = system: wild type osteoblasts; assay: Isoproterenol on wild type osteoblasts: mRNA levels by quantitative PCR; assay type: cell-based
From the text: The sympathetic nervous system positively regulates OST-PTP expression. It was discovered that sympathetic nervous system (SNS) activity positively regulates Esp expression in osteoblasts. […] Thus, decreasing sympathetic activity should lead to a decrease in Esp expression and thereby to an increase in the undercarboxylated, active form of osteocalcin.

[3] = system: Adiponectin expression in WT adipocytes; assay: Co-culture of adipocytes with warfarin-treated osteoblasts: adiponectin expression; assay type: cell-based, mouse; conditions: warfarin-treated vs vehicle-treated osteoblasts (FIG. 7J)
Description: as §1
Co-culture of osteoblasts and adipocytes to study regulation of adiponectin expression/secretion by osteocalcin. A co-culture assay was developed between osteoblasts and adipocytes to analyze modifications in adiponectin expression. […]

[4] = system: gamma-carboxylation of osteocalcin in osteoblasts; assay: Osteocalcin/hydroxyapatite (HA) binding assay of medium from warfarin-treated osteoblasts; assay type: cell-based, mouse
Description: as §1
Cell culture experiments. […]
Osteocalcin/hydroxyapatite (HA) binding assay. […] Osteocalcin present in eluates and initial samples was measured by IRMA. […]

[5] = hydroxyapatite competition studies; cited from earlier work

## 1-36 fragment of uncarboxylated osteocalcin: Recombinant truncated mouse osteocalcin (1-36), ten amino acids deleted from the C-terminal end (YLGASVPSPDPLEPTREQCELNPACDELSDQYGLKT; not fully specified; ends and bridges not checked; UniProt P86546 50-85, looked up, fragment)
[1]; wild type adipocytes treated for 4 hours, real time PCR, vs vehicle
  increase of Adiponectin expression: ~1.8 fold
[1]; wt adipocytes, 4 hours, in vitro
  potency in inducing adiponectin expression compared with native osteocalcin: as potent as native osteocalcin

## CC(C)NCC(O)c1ccc(O)c(O)c1 (stereo not drawn) [isoproterenol]
[2]
  expression of gamma-carboxylase (ggcx): did not increase expression
  expression of osteocalcin: did not increase expression
  expression of vkor: did not increase expression
[2]; at 8 hours
  increase of Esp expression: remains steady
[2]; by 4 hours
  increase of Esp expression: about 80%

## CC(=O)CC(c1ccccc1)c1c(O)c2ccccc2oc1=O (stereo not drawn) [warfarin]
[3]
  induction of adiponectin expression in co-cultured adipocytes: significantly higher extent
[4]; conditioned medium of warfarin-treated osteoblasts vs vehicle (FIG. 7I)
  percentage of osteocalcin bound to HA: marked decrease
[4]; warfarin-treated vs vehicle-treated osteoblasts (FIG. 7I)
  levels of undercarboxylated osteocalcin produced by osteoblasts: elevated levels

## Decarboxylated osteocalcin: thermally decarboxylated osteocalcin of the literature (YLYQWLGAPVPYPDPLEPRREVCELNPDCDELADHIGFQEAYRRFYGPV; not fully specified; ends and bridges not checked; UniProt P02818 52-100, looked up)
[5]
  competition with ^125I-labeled osteocalcin bound to hydroxyapatite: fail to compete

## carboxylated osteocalcin: commercially available carboxylated osteocalcin (Immunotopics) (YLYQWLGAPVPYPDPL[Gla′]PRR[Gla′]VC[Gla′]LNPDCDELADHIGFQEAYRRFYGPV; disulfide 23-29; ends not checked; also: carboxylated (Gla), sites not given here; UniProt P02818 52-100, looked up) [reference compound]
[1]; WT adipocytes, 1 ng/ml (FIG. 7K)
  induction of adiponectin expression: failed to induce adiponectin expression
